Experimental data from PubChem BioAssay AID2060910 (Molecular Pharmacology Branch, DTP, NCI, 2025).
pIC50: −log10 of the molar value.

Test system: 242566-281-R-J2-PDC complex spheroid viability
Experiment: Anticancer human tumor 242566-281-R-J2-PDC patient-derived pancreatic carcinoma cell line growth inhibition [RAS]
Settings: for pIC50: curve of first compound; for viability, T/C: stronger effect = lower value; active = viability on the fitted dose curve at most 10% of control; inactive = the rest
Method in brief: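 Agents were tested in combination matrices in half-log decrements from a top concentration at or near clinical Cmax (10 microM if undetermined). Targets were multi-cell spheroids of tumour lines plus HUVEC and MSC stromal cells.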

[1] = second compound 0.000949 µM, first compound 0.0316 µM
[2] = second compound 0.000949 µM, first compound 0.1 µM
[3] = second compound 0.000949 µM, first compound 0.316 µM
[4] = second compound 0.000949 µM, first compound 1 µM
[5] = second compound 0.000949 µM, first compound 3.16 µM
[6] = second compound 0.000949 µM, first compound 10 µM
[7] = second compound 0.003 µM, first compound 0.0316 µM
[8] = second compound 0.003 µM, first compound 0.1 µM
[9] = second compound 0.003 µM, first compound 0.316 µM
[10] = second compound 0.003 µM, first compound 1 µM
[11] = second compound 0.003 µM, first compound 3.16 µM
[12] = second compound 0.003 µM, first compound 10 µM
[13] = second compound 0.00949 µM, first compound 0.0316 µM
[14] = second compound 0.00949 µM, first compound 0.1 µM
[15] = second compound 0.00949 µM, first compound 0.316 µM
[16] = second compound 0.00949 µM, first compound 1 µM
[17] = second compound 0.00949 µM, first compound 3.16 µM
[18] = second compound 0.00949 µM, first compound 10 µM
[19] = second compound 0.03 µM, first compound 0.0316 µM
[20] = second compound 0.03 µM, first compound 0.1 µM
[21] = second compound 0.03 µM, first compound 0.316 µM
[22] = second compound 0.03 µM, first compound 1 µM
[23] = second compound 0.03 µM, first compound 3.16 µM
[24] = second compound 0.03 µM, first compound 10 µM
[25] = second compound 0.0949 µM, first compound 0.0316 µM
[26] = second compound 0.0949 µM, first compound 0.1 µM
[27] = second compound 0.0949 µM, first compound 0.316 µM
[28] = second compound 0.0949 µM, first compound 1 µM
[29] = second compound 0.0949 µM, first compound 3.16 µM
[30] = second compound 0.0949 µM, first compound 10 µM
[31] = second compound 0.3 µM, first compound 0.0316 µM
[32] = second compound 0.3 µM, first compound 0.1 µM
[33] = second compound 0.3 µM, first compound 0.316 µM
[34] = second compound 0.3 µM, first compound 1 µM
[35] = second compound 0.3 µM, first compound 3.16 µM
[36] = second compound 0.3 µM, first compound 10 µM
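Also: spheroids exposed to compound for 7 days before readout.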
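For viability, T/C in this document: 100% = DMSO vehicle control wells.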

CC1(O)CCCC1n1c(=O)c(C(F)F)cc2cnc(NC3CCN(S(C)(=O)=O)CC3)nc21 (stereo not given) + CCn1c(-c2cc(N3CCN(C)CC3)cnc2C(C)OC)c2c3cc(ccc31)-c1csc(n1)CC(NC(=O)C1CC1C)C(=O)N1CCCC(N1)C(=O)OCC(C)(C)C2
inactive: viability, T/C [1] 85.7% | viability, T/C [2] 84% | viability, T/C [3] 72.8% | viability, T/C [4] 98.9% | viability, T/C [5] 98.1% | viability, T/C [6] 25.2% | viability, T/C [7] 73% | viability, T/C [8] 58.6% | viability, T/C [9] 64.7% | viability, T/C [10] 73.3% | viability, T/C [11] 82.5% | viability, T/C [12] 17.2% | viability, T/C [13] 43.7% | viability, T/C [14] 42.2% | viability, T/C [15] 49.5% | viability, T/C [16] 51.4% | viability, T/C [17] 53.2% | viability, T/C [18] 14.7% | viability, T/C [19] 25.7% | viability, T/C [20] 28.7% | viability, T/C [21] 30.8% | viability, T/C [22] 35.6% | viability, T/C [23] 30.7% | viability, T/C [24] 18.1% | viability, T/C [25] 23.1% | viability, T/C [26] 23.8% | viability, T/C [27] 22% | viability, T/C [28] 28.7% | viability, T/C [29] 22.5% | viability, T/C [30] 15.1% | viability, T/C [31] 18% | viability, T/C [32] 18.6% | viability, T/C [33] 20.5% | viability, T/C [34] 23.6% | viability, T/C [35] 26.8% | viability, T/C [36] 14.1%
5.20: pIC50 (second compound 0.000949 µM)
> 7.50: pIC50 (second compound 0.03 µM) | pIC50 (second compound 0.0949 µM) | pIC50 (second compound 0.3 µM)
7.50: pIC50 (second compound 0.00949 µM)
5.31: pIC50 (second compound 0.003 µM)

CCC(CC)c1cc(NC2CCC(N)C2)n2nccc2n1 (stereo not given) + CCn1c(-c2cc(N3CCN(C)CC3)cnc2C(C)OC)c2c3cc(ccc31)-c1csc(n1)CC(NC(=O)C1CC1C)C(=O)N1CCCC(N1)C(=O)OCC(C)(C)C2
> 7.50: pIC50 (second compound 0.00949 µM) | pIC50 (second compound 0.03 µM) | pIC50 (second compound 0.0949 µM) | pIC50 (second compound 0.3 µM)
active: viability, T/C [6] 1.28% | viability, T/C [12] 1.04% | viability, T/C [18] 1.43% | viability, T/C [24] 2.28% | viability, T/C [30] 1.49% | viability, T/C [35] 6.77% | viability, T/C [36] 1.47%
5.58: pIC50 (second compound 0.000949 µM)
5.69: pIC50 (second compound 0.003 µM)
inactive: viability, T/C [1] 90.9% | viability, T/C [2] 88.3% | viability, T/C [3] 77.8% | viability, T/C [4] 90.1% | viability, T/C [5] 42.9% | viability, T/C [7] 80.1% | viability, T/C [8] 74.2% | viability, T/C [9] 65.4% | viability, T/C [10] 74.9% | viability, T/C [11] 35.5% | viability, T/C [13] 50.9% | viability, T/C [14] 39.1% | viability, T/C [15] 45.9% | viability, T/C [16] 45.8% | viability, T/C [17] 18.8% | viability, T/C [19] 32.2% | viability, T/C [20] 29.8% | viability, T/C [21] 27.9% | viability, T/C [22] 29.8% | viability, T/C [23] 7.89% | viability, T/C [25] 22.3% | viability, T/C [26] 21% | viability, T/C [27] 23.2% | viability, T/C [28] 24.5% | viability, T/C [29] 8.03% | viability, T/C [31] 20.7% | viability, T/C [32] 19.7% | viability, T/C [33] 20.5% | viability, T/C [34] 20.9%

CCN1CCN(Cc2ccc(Nc3ncc(F)c(-c4cc(F)c5nc(C)n(C(C)C)c5c4)n3)nc2)CC1 + CCn1c(-c2cc(N3CCN(C)CC3)cnc2C(C)OC)c2c3cc(ccc31)-c1csc(n1)CC(NC(=O)C1CC1C)C(=O)N1CCCC(N1)C(=O)OCC(C)(C)C2
> 8.50: pIC50 (second compound 0.00949 µM) | pIC50 (second compound 0.03 µM) | pIC50 (second compound 0.0949 µM) | pIC50 (second compound 0.3 µM)
< 6.00: pIC50 (second compound 0.000949 µM) | pIC50 (second compound 0.003 µM)
inactive: viability, T/C (second compound 0.000949 µM, first compound 0.00316 µM) 88.6% | viability, T/C (second compound 0.000949 µM, first compound 0.01 µM) 88.5% | viability, T/C [1] 69.9% | viability, T/C [2] 76% | viability, T/C [3] 90.5% | viability, T/C [4] 83.7% | viability, T/C (second compound 0.003 µM, first compound 0.00316 µM) 81.9% | viability, T/C (second compound 0.003 µM, first compound 0.01 µM) 67.8% | viability, T/C [7] 58.8% | viability, T/C [8] 63.8% | viability, T/C [9] 71.8% | viability, T/C [10] 56.1% | viability, T/C (second compound 0.00949 µM, first compound 0.00316 µM) 53.8% | viability, T/C (second compound 0.00949 µM, first compound 0.01 µM) 38.4% | viability, T/C [13] 43.2% | viability, T/C [14] 39.6% | viability, T/C [15] 42.9% | viability, T/C [16] 48.1% | viability, T/C (second compound 0.03 µM, first compound 0.00316 µM) 27.8% | viability, T/C (second compound 0.03 µM, first compound 0.01 µM) 31.3% | viability, T/C [19] 29.7% | viability, T/C [20] 30.9% | viability, T/C [21] 29.2% | viability, T/C [22] 40.9% | viability, T/C (second compound 0.0949 µM, first compound 0.00316 µM) 22% | viability, T/C (second compound 0.0949 µM, first compound 0.01 µM) 22.1% | viability, T/C [25] 20.8% | viability, T/C [26] 22% | viability, T/C [27] 22% | viability, T/C [28] 31.6% | viability, T/C (second compound 0.3 µM, first compound 0.00316 µM) 19.2% | viability, T/C (second compound 0.3 µM, first compound 0.01 µM) 18.9% | viability, T/C [31] 19.1% | viability, T/C [32] 20.3% | viability, T/C [33] 22.4% | viability, T/C [34] 32.7%

Cc1nc(N2CCC3(CC2)COC(C)C3N)c(CO)nc1Sc1ccnc(N)c1Cl (stereo not given) + CCn1c(-c2cc(N3CCN(C)CC3)cnc2C(C)OC)c2c3cc(ccc31)-c1csc(n1)CC(NC(=O)C1CC1C)C(=O)N1CCCC(N1)C(=O)OCC(C)(C)C2
inactive: viability, T/C [1] 92.2% | viability, T/C [2] 69.8% | viability, T/C [3] 43.5% | viability, T/C [4] 45% | viability, T/C [5] 32.9% | viability, T/C [6] 19.8% | viability, T/C [7] 61% | viability, T/C [8] 46.9% | viability, T/C [9] 31% | viability, T/C [10] 28.2% | viability, T/C [11] 26.1% | viability, T/C [12] 16.1% | viability, T/C [13] 41.3% | viability, T/C [14] 26.4% | viability, T/C [15] 27.9% | viability, T/C [16] 21.9% | viability, T/C [17] 19.4% | viability, T/C [18] 17.1% | viability, T/C [19] 25.8% | viability, T/C [20] 24.3% | viability, T/C [21] 19.3% | viability, T/C [22] 17.9% | viability, T/C [23] 15.1% | viability, T/C [24] 14.9% | viability, T/C [25] 21.5% | viability, T/C [26] 19.1% | viability, T/C [27] 18.5% | viability, T/C [28] 16.9% | viability, T/C [29] 14.3% | viability, T/C [30] 15.4% | viability, T/C [31] 21.5% | viability, T/C [32] 18.1% | viability, T/C [33] 16.6% | viability, T/C [34] 14.8% | viability, T/C [35] 16.4% | viability, T/C [36] 12.9%
> 7.50: pIC50 (second compound 0.00949 µM) | pIC50 (second compound 0.03 µM) | pIC50 (second compound 0.0949 µM) | pIC50 (second compound 0.3 µM)
7.14: pIC50 (second compound 0.003 µM)
6.45: pIC50 (second compound 0.000949 µM)

NC1c2ccccc2OC12CCN(c1cnc3c(N4CCCc5ncccc54)n[nH]c3n1)CC2 (stereo not given) + CCn1c(-c2cc(N3CCN(C)CC3)cnc2C(C)OC)c2c3cc(ccc31)-c1csc(n1)CC(NC(=O)C1CC1C)C(=O)N1CCCC(N1)C(=O)OCC(C)(C)C2
> 7.50: pIC50 (second compound 0.003 µM) | pIC50 (second compound 0.00949 µM) | pIC50 (second compound 0.03 µM) | pIC50 (second compound 0.0949 µM) | pIC50 (second compound 0.3 µM)
active: viability, T/C [18] 7.23% | viability, T/C [24] 7.77% | viability, T/C [30] 7.6% | viability, T/C [35] 9.17% | viability, T/C [36] 4.89%
7.29: pIC50 (second compound 0.000949 µM)
inactive: viability, T/C [1] 58.2% | viability, T/C [2] 40.6% | viability, T/C [3] 20.6% | viability, T/C [4] 24.9% | viability, T/C [5] 21.2% | viability, T/C [6] 8.53% | viability, T/C [7] 42.9% | viability, T/C [8] 26.4% | viability, T/C [9] 18.9% | viability, T/C [10] 21.3% | viability, T/C [11] 18.4% | viability, T/C [12] 6.57% | viability, T/C [13] 31.6% | viability, T/C [14] 19.2% | viability, T/C [15] 18.1% | viability, T/C [16] 15.8% | viability, T/C [17] 13.4% | viability, T/C [19] 23.1% | viability, T/C [20] 18.1% | viability, T/C [21] 15.7% | viability, T/C [22] 15.2% | viability, T/C [23] 12.8% | viability, T/C [25] 20.1% | viability, T/C [26] 16.8% | viability, T/C [27] 14.8% | viability, T/C [28] 13.6% | viability, T/C [29] 11.8% | viability, T/C [31] 15.6% | viability, T/C [32] 15.4% | viability, T/C [33] 14.4% | viability, T/C [34] 10.6%
